pKi: −log10 of the molar value. Like-named read-outs stand apart in the source and are kept apart here. Each block holds one compound with its values, some of them ahead of it.
Assays:
[1] = system: MV4:11 human cancer cell lines; test: Anti-proliferative activity, CellTiter-Glo viability assay, 7 day protocol; assay type: cell-based; conditions: Homo sapiens, MV4-11, 168 h, MV4:11 cells, 7 day incubation, read-out: GI50 on cellular proliferation of MV4:11 human cancer cell lines
Procedure, shortened: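 MV4:11 cells seeded at 3600 cells/ml and exposed to compounds for 7 days, 0.1% DMSO final. Viability measured by CellTiter-Glo luminescence. GI50 from three biological replicates, each in technical triplicate, given as mean ± S.E.M.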

[2] = target: WDR5 (Homo sapiens (Human), UniProt P61964); test: TR-FRET binding assay (displacement of 10mer-Thr-FAM probe from WDR5)
[3] = read-out: Ki for Inhibition of WDR5 by TR-FRET assay, TR-FRET, 10mer-Thr-FAM probe, WDR5-His tag 2 nM, pH 7.0
[4] = read-out: Ki for Inhibition of WDR5 by TR-FRET assay

- GI50 [1]: < 100 nM
- pKi [2]: > 10.00
Structure (SMILES): CCn1cc(-c2cc(CN3CCN(C)C3=N)cc(C(=O)N[C@H](c3ccc(F)c(Cl)c3)C3CC3)c2)c(C(F)(F)F)n1 [Example 214, (S)—N-((3-Chloro-4-fluorophenyl)(cyclopropyl)methyl)-3-(1-ethyl-3-(trifluoromethyl)-1H pyrazol-4-yl)-5-((2-imino-3-methylimidazolidin-1-yl)methyl)benzamide]

- GI50 [1]: < 100 nM
- pKi [2]: > 10.00
Structure (SMILES): Cc1cc([C@@H](NC(=O)c2cc(CN3CCN(C)C3=N)cc(-c3cn(C(C)C)nc3C(F)(F)F)c2)C2CC2)ccc1F [Example 215, (S)—N-(Cyclopropyl(4-fluoro-3-methylphenyl)methyl)-3-((2-imino-3-methylimidazolidin-1-yl)methyl)-5-(1-isopropyl-3-(trifluoromethyl)-1H-pyrazol-4-yl)benzamide]

Structure (SMILES): CC(C)n1cc(-c2cc(CN3CCN(C)C3=N)cc(C(=O)N[C@H](c3ccc(F)c(F)c3)C3CC3)c2)c(C(F)(F)F)n1 [Example 216, (S)—N-(Cyclopropyl(3,4-difluorophenyl)methyl)-3-((2-imino-3-methylimidazolidin-1-yl)methyl)-5-(1-isopropyl-3-(trifluoromethyl)-1H-pyrazol-4-yl)benzamide]
- GI50 [1]: < 100 nM
- pKi [2, 3]: > 10.00

Structure (SMILES): Cc1cc([C@@H](NC(=O)c2cc(Cn3ccn(C)c3=N)cc(C3(C(F)(F)F)CC3)c2)C2CC2)ccc1F [Example 217, (S)—N-(cyclopropyl(4-fluoro-3-methylphenyl)methyl)-3-((2imino-3-methyl-2,3-dihydro-1H-imidazol-1-yl)methyl)-5-(1-(trifluoromethyl)cyclopropyl)benzamide]
- GI50 [1]: < 100 nM
- pKi [2, 3]: > 10.00

Structure (SMILES): CN1CCN(Cc2cc(C(=O)N[C@H](c3ccc(F)c(Cl)c3)C3CC3)cc(-c3cccnc3C(F)(F)F)c2)C1=N [Example 219, (S)—N-((3-chloro-4-fluorophenyl)(cyclopropyl)methyl)-3-((2-imino-3-methylimidazolidin 1-yl)methyl)-5-(2-(trifluoromethyl)pyridin-3-yl)benzamide]
- GI50 [1]: < 100 nM
- pKi [2, 3]: > 10.00

Structure (SMILES): Cc1cccc(C2(NC(=O)c3cc(Cn4ccn(C)c4=N)cc(-c4cn(C)nc4C(F)(F)F)c3)CCC2)c1 [Example 220, 3-((2-Imino-3-methyl-2,3-dihydro-1H-imidazol-1-yl)methyl)-5-(1-methyl-3-(trifluoromethyl)-1H-pyrazol-4-yl)-N-(1-(m-tolyl)cyclobutyl)benzamide]
- GI50 [1]: 220 nM
- pKi [2, 3]: > 10.00

Structure (SMILES): COc1cc([C@@H](NC(=O)c2cc(Cn3ccn(C)c3=N)cc(-c3cn(C)nc3C(F)(F)F)c2)C2CC2)ncc1F [Example 221, (S)—N-(Cyclopropyl(5-fluoro-4-methoxypyridin-2-yl)methyl)-3-((2-imino-3-methyl-2,3-dihydro-1-imidazol-1-yl)methyl)-5-(1-methyl-3-(trifluoromethyl)-1H-pyrazol-4-yl)benzamide]
- GI50 [1]: < 100 nM
- pKi [2, 3]: > 10.00

Structure (SMILES): Cc1cc([C@@H](NC(=O)c2cc(Cn3ccn(C)c3=N)cc(N3CCOC[C@H]3C)c2)C2CC2)ccc1F [Example 227, N—((S)-cyclopropyl(4-fluoro-3-methylphenyl)methyl)-3-((2-imino-3-methyl-2,3-dihydro-1H-imidazol-1-yl)methyl)-5-((R)-3-methylmorpholino)benzamide]
- GI50 [1]: 940 nM
- pKi [2, 4]: 8.68

- GI50 [1]: 550 nM
- pKi [2]: 9.68
Structure (SMILES): COc1cc(CNC(=O)c2cc(Cn3ccoc3=N)cc(-c3ccc(F)cc3C)c2)cc(OC)c1 [Example 229, N-(3,5-Dimethoxybenzyl)-4′-fluoro-5-((2-iminooxazol-3(2H)-yl)methyl)-2′-methyl-[1,1′-biphenyl]-3-carboxamide]

Structure (SMILES): COc1cc(OC)cc(C(NC(=O)c2cc(Cn3ccoc3=N)cc(-c3ncccc3C(F)(F)F)c2)C2CC2)c1 (stereo not drawn) [Example 235, N-(Cyclopropyl(3,5-dimethoxyphenyl)methyl)-3-((2-iminooxazol-3(2H)-yl)methyl)-5-(3-(trifluoromethyl)pyridin-2-yl)benzamide]
- GI50 [1]: 3100 nM
- pKi [2, 3]: 8.46

Structure (SMILES): COc1cc(OC)cc(C(NC(=O)c2cc(Cn3ccoc3=N)cc(-c3ccc(F)cc3OC(F)F)c2)C2CC2)c1 (stereo not drawn) [Example 236, N-(Cyclopropyl(3,5-dimethoxyphenyl)methyl)-2′-(difluoromethoxy)-4′-fluoro-5-((2-iminooxazol-3(2H)-yl)methyl)-[1,1′-biphenyl]-3-carboxamide]
- GI50 [1]: 450 nM
- pKi [2, 3]: 9.80

Structure (SMILES): COc1cc(CNC(=O)c2cc(Cn3ccoc3=N)cc(-c3ncc(F)cc3C)c2)cc(OC)c1 [Example 238, N-(3,5-Dimethoxybenzyl)-3-(5-fluoro-3-methylpyridin-2-yl)-5-((2-iminooxazol-3(2H)-yl)methyl)benzamide]
- GI50 [1]: 3800 nM
- pKi [2, 4]: 8.54

Structure (SMILES): Cc1ccnc([C@@H](NC(=O)c2cc(Cn3ccoc3=N)cc(-c3ccc(F)cc3C)c2)C2CC2)c1 [Example 247, (S)—N-(Cyclopropyl(4-methylpyridin-2-yl)methyl)-4′-fluoro-5-((2-iminooxazol-3(2H)-yl)methyl)-2′-methyl-[1,1′-biphenyl]-3-carboxamide]
- GI50 [1]: 270 nM
- pKi [2, 3]: 9.85

Structure (SMILES): Cc1cc([C@@H](NC(=O)c2cc(Cn3ccoc3=N)cc(-c3ccc(F)cc3Cl)c2)C2CC2)ccc1F [Example 248, (S)-2′-Chloro-N-(cyclopropyl(4-fluoro-3-methylphenyl)methyl)-4′-fluoro-5-((2-iminooxazol-3(2H)-yl)methyl)-[1,1′-biphenyl]-3-carboxamide]
- GI50 [1]: 120 nM
- pKi [2, 3]: > 10.00

Structure (SMILES): Cc1cn(Cc2cc(C(=O)N[C@H](c3ccc(F)c(C)c3)C3CC3)cc(-c3cccnc3C(F)(F)F)c2)c(=N)o1 [Example 250, (S)—N-(Cyclopropyl(4-fluoro-3-methylphenyl)methyl)-3-((2-imino-5-methyloxazol-3(2H)-yl)methyl)-5-(2-(trifluoromethyl)pyridin-3-yl)benzamide]
- GI50 [1]: 570 nM
- pKi [2, 3]: 9.40

Structure (SMILES): Cc1cc([C@@H](NC(=O)c2cc(Cn3ccoc3=N)cc(-c3cn(C)nc3C(F)(F)F)c2)C2CC2)ccc1F [Example 259, (S)—N-(Cyclopropyl(4-fluoro-3-methylphenyl)methyl)-3-((2-iminooxazol-3(2H)-yl)methyl)-5-(1-methyl-3-(trifluoromethyl)-1H-pyrazol-4-yl)benzamide]
- GI50 [1]: < 100 nM
- pKi [2, 4]: > 10.00

Structure (SMILES): Cc1cc([C@@H](NC(=O)c2cc(Cn3ccoc3=N)cc(-c3cccnc3OC(F)F)c2)C2CC2)ccc1F [Example 261, (S)—N-(Cyclopropyl(4-fluoro-3-methylphenyl)methyl)-3-(2-(difluoromethoxy)pyridin-3-yl)-5-((2-iminooxazol-3(2H)-yl)methyl)benzamide]
- GI50 [1]: 730 nM
- pKi [2, 3]: 9.55

Structure (SMILES): Cn1cc(-c2cc(Cn3ccoc3=N)cc(C(=O)N[C@H](c3ccc(Cl)c(Cl)c3)C3CC3)c2)c(C(F)(F)F)n1 [Example 268, (S)—N-(Cyclopropyl(3,4-dichlorophenyl)methyl)-3-((2-iminooxazol-3(2H)-yl)methyl)-5-(1-methyl-3-(trifluoromethyl)-1 t-pyrazol-4-yl)benzamide]
- GI50 [1]: < 100 nM
- pKi [2, 4]: > 10.00

Structure (SMILES): Cn1cc(-c2cc(CN3CCOC3=N)cc(C(=O)N[C@H](c3ccc(Cl)c(Cl)c3)C3CC3)c2)c(C(F)(F)F)n1 [Example 269, (S)—V—N-(Cyclopropyl(3,4-dichlorophenyl)methyl)-3-((2-iminooxazolidin-3-yl)methyl)-5-(1-methyl-3-(trifluoromethyl)-1H-pyrazol-4-yl)benzamide]
- GI50 [1]: < 100 nM
- pKi [2, 3]: > 10.00

Structure (SMILES): Cc1cc([C@@H](NC(=O)c2cc(CN3CCOC3=N)cc(-c3ccc(F)cc3C(F)F)c2)C2CC2)ccc1F [Example 272, (S)—N-(Cyclopropyl(4-fluoro-3-methylphenyl)methyl)-2′-(difluoromethyl)-4′-fluoro-5-((2-iminooxazolidin-3-yl)methyl)-[1,1′-biphenyl]-3-carboxamide]
- GI50 [1]: 100 nM
- pKi [2, 3]: > 10.00

Structure (SMILES): Cc1cc([C@@H](NC(=O)c2cc(CN3CCOC3=N)cc(-c3ccc(F)cc3OC(F)F)c2)C2CC2)ccc1F [Example 273, (S)—N-(Cyclopropyl(4-fluoro-3-methylphenyl)methyl)-2′-(difluoromethoxy)-4′-fluoro-5-((2-iminooxazolidin-3-yl)methyl)-[1,1′-biphenyl]-3-carboxamide]
- GI50 [1]: 140 nM
- pKi [2, 3]: > 10.00

Structure (SMILES): Cc1cc([C@@H](NC(=O)c2cc(Cn3ccoc3=N)cc(-c3ccc(F)cc3C(F)F)c2)C2CC2)ccc1F [Example 274, (S)—N-(Cyclopropyl(4-fluoro-3-methylphenyl)methyl)-2′-(difluoromethyl)-4′-fluoro-5-((2-iminooxazol-3(2H)-yl)methyl)-[1,1′-biphenyl]-3-carboxamide]
- GI50 [1]: < 100 nM
- pKi [2, 3]: > 10.00

Structure (SMILES): Cc1cc([C@@H](NC(=O)c2cc(CN3CCOC3=N)cc(-c3cn(C(C)C)nc3C(F)(F)F)c2)C2CC2)ccc1F [Example 275, (S)—N-(Cyclopropyl(4-fluoro-3-methylphenyl)methyl)-3-((2iminooxazolidin-3-yl)methyl)-5-(1-isopropyl-3-(trifluoromethyl)-1H-pyrazol-4-yl)benzamide]
- GI50 [1]: < 100 nM
- pKi [2, 3]: > 10.00

Structure (SMILES): CCn1cc(-c2cc(Cn3ccoc3=N)cc(C(=O)N[C@H](c3ccc(Cl)c(Cl)c3)C3CC3)c2)c(C(F)(F)F)n1 [Example 280, (S)—N-(Cyclopropyl(3,4-dichlorophenyl)methyl)-3-(1-ethyl-3-(trifluoromethyl)-1H-pyrazol-4-yl)-5-((2-iminooxazol-3(2H)-yl)methyl)benzamide]
- GI50 [1]: < 100 nM
- pKi [2, 3]: > 10.00

From patent publication US10844044B2 (Vanderbilt University, priority 2018, dated 2020)
